Laboratory results taken from patent publication US7138361B2, “Herbicidal heterocycles” (E. I. du Pont de Nemours and Company, priority 2000, dated 2006).

How the values were obtained:
Format in all cases: in vivo
[1] = tested on: Surinam grass (Brachiaria decumbens); test: Test B postemergence; settings: 13 to 15 days
Source text: (§1) Seeds selected from barnyardgrass (Echinochloa crus-galli), Surinam grass (Brachiaria decumbens), cocklebur (Xanthium strumarium), corn (Zea mays), crabgrass (Digitaria sanguinalis), giant foxtail (Setaria faberii), lambsquarters (Chenopodium album), morning glory (Ipomoea hederacea), pigweed (Amaranthus retroflexus), rice (Oryza saliva) and velvetleaf (Abutilon theophrasti) were planted and treated preemergence with test chemicals formulated in a non-phytotoxic solvent mixture which included a surfactant.
(§2) At the same time, plants selected from these crop and weed species and also blackgrass (Alopecurus myosuroides), wheat (Triticum aestivum) and wild oat (Avena fatua) were treated with postemergence applications of test chemicals formulated in the same manner. Plants ranged in height from 2 to 18 cm (1- to 4-leaf stage) for postemergence treatments. Plant species in the flooded paddy test consisted of rice (Oryza saliva), smallflower flatsedge (Cyperus difformis), duck salad (Heteranthera limosa) and barnyardgrass (Echinochloa crus-galli) grown to the 2-leaf stage for testing. Treated plants and controls were maintained in a greenhouse for 13 to 15 days, after which time all species were compared to controls and visually evaluated. Plant response ratings, summarized in Table B, are based on a scale of 0 to 100 where 0 is no effect and 100 is complete control. A dash (-) response means no test result.

[2] = tested on: barnyardgrass (Echinochloa crus-galli); test: Test B postemergence; settings: 13 to 15 days
Source text: as §1, §2

[3] = tested on: blackgrass (Alopecurus myosuroides); test: Test B postemergence; settings: 13 to 15 days
Source text: as §1, §2

[4] = tested on: cocklebur (Xanthium strumarium); test: Test B postemergence; settings: 13 to 15 days
Source text: as §1, §2

corn (Zea mays) [5] = test: Test B postemergence; settings: 13 to 15 days
Source text: as §1, §2

[6] = tested on: crabgrass (Digitaria sanguinalis); test: Test B postemergence; settings: 13 to 15 days
Source text: as §1, §2

[7] = tested on: giant foxtail (Setaria faberii); test: Test B postemergence; settings: 13 to 15 days
Source text: as §1, §2

[8] = tested on: lambsquarters (Chenopodium album); test: Test B postemergence; settings: 13 to 15 days
Source text: as §1, §2

[9] = tested on: morning glory (Ipomoea hederacea); test: Test B postemergence; settings: 13 to 15 days
Source text: as §1, §2

[10] = tested on: pigweed (Amaranthus retroflexus); test: Test B postemergence; settings: 13 to 15 days
Source text: as §1, §2

[11] = tested on: velvetleaf (Abutilon theophrasti); test: Test B postemergence; settings: 13 to 15 days
Source text: as §1, §2

[12] = tested on: wheat (Triticum aestivum); test: Test B postemergence; settings: 13 to 15 days
Source text: as §1, §2

wild oat (Avena fatua) = test: Test B postemergence; settings: 13 to 15 days
Source text: as §1, §2

[13] = tested on: Surinam grass (Brachiaria decumbens); test: Test B preemergence
Summary of the method: (§3)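 Visual injury scores, 0 = no effect to 100 = complete control, assigned against controls after 13 to 15 days in the greenhouse. Compounds formulated in non-phytotoxic solvent plus surfactant and applied to soil after planting (pre) or onto foliage of 1- to 4-leaf plants (post).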

[14] = tested on: barnyardgrass (Echinochloa crus-galli); test: Test B preemergence
Summary of the method: as §3

[15] = tested on: cocklebur (Xanthium strumarium); test: Test B preemergence
Summary of the method: as §3

corn (Zea mays) [16] = test: Test B preemergence
Summary of the method: as §3

[17] = tested on: crabgrass (Digitaria sanguinalis); test: Test B preemergence
Summary of the method: as §3

[18] = tested on: giant foxtail (Setaria faberii); test: Test B preemergence
Summary of the method: as §3

[19] = tested on: lambsquarters (Chenopodium album); test: Test B preemergence
Summary of the method: as §3

[20] = tested on: morning glory (Ipomoea hederacea); test: Test B preemergence
Summary of the method: as §3

[21] = tested on: pigweed (Amaranthus retroflexus); test: Test B preemergence
Summary of the method: as §3

rice (Oryza saliva) [22] = test: Test B preemergence
Summary of the method: as §3

[23] = tested on: velvetleaf (Abutilon theophrasti); test: Test B preemergence
Summary of the method: as §3

[24] = tested on: barnyardgrass (Echinochloa crus-galli); test: Test C flooded paddy test; settings: for Barnyardgrass plant response rating: Flooded Paddy, scale 0 to 100, 0 no effect, 100 complete control; for Plant response rating, Barnyardgrass: flooded paddy test, scale 0 to 100 (0 no effect, 100 complete control)
Summary of the method: (§4)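 Flooded paddy, 2-leaf stage at treatment. Readout: visual % control vs untreated, 0–100, at 12–14 d in greenhouse.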

[25] = tested on: duck salad (Heteranthera limosa); test: Test C flooded paddy test; settings: for Ducksalad plant response rating: Flooded Paddy, scale 0 to 100, 0 no effect, 100 complete control; for Plant response rating, Ducksalad: flooded paddy test, scale 0 to 100 (0 no effect, 100 complete control)
Summary of the method: as §4

rice (Oryza saliva) [26] = test: Test C flooded paddy test; settings: for Rice plant response rating: Flooded Paddy, scale 0 to 100, 0 no effect, 100 complete control; for Plant response rating, Rice: flooded paddy test, scale 0 to 100 (0 no effect, 100 complete control)
Summary of the method: as §4

[27] = tested on: smallflower flatsedge (Cyperus difformis); test: Test C flooded paddy test; settings: for Flatsedge plant response rating: Flooded Paddy, scale 0 to 100, 0 no effect, 100 complete control; for Plant response rating, Flatsedge: flooded paddy test, scale 0 to 100 (0 no effect, 100 complete control)
Summary of the method: as §4

[28] = Rate 125 g/ha, scale 0 (no effect) to 100 (complete control)
[29] = Rate 500 g/ha, scale 0 to 100, 0 is no effect, 100 is complete control
[30] = Preemergence, Rate 500 g/ha, scale 0 to 100, 0 no effect, 100 complete control
[31] = preemergence, Rate 125 g/ha, scale of 0 to 100 where 0 is no effect and 100 is complete control, 13 to 15 days

Cc1cc(N2CCC(n3ccc(C(C)(C)C)n3)C2=O)cc(Br)c1C (centres unmarked) [Compound 77]
Plant response rating, Surinam grass [1, 28]: 0 | Plant response rating, Surinam grass [1, 29]: 0 | Plant response rating, Barnyardgrass [2, 28]: 0 | Plant response rating, Barnyardgrass [2, 29]: 0 | Plant response rating, Blackgrass [3, 28]: 0 | Plant response rating, Blackgrass [3, 29]: 0 | Plant response rating, Cocklebur [4, 28]: 0 | Plant response rating, Cocklebur [4, 29]: 20 | Plant response rating, Corn (corn (Zea mays) [5]; [28]): 0 | Plant response rating, Corn (corn (Zea mays) [5]; [29]): 0 | Plant response rating, Crabgrass [6, 28]: 0 | Plant response rating, Crabgrass [6, 29]: 0 | Plant response rating, Foxtail, Giant [7, 28]: 0 | Plant response rating, Foxtail, Giant [7, 29]: 0 | Plant response rating, Lambsquarters [8, 28]: 0 | Plant response rating, Lambsquarters [8, 29]: 20 | Plant response rating, Morningglory [9, 28]: 0 | Plant response rating, Morningglory [9, 29]: 0 | Plant response rating, Pigweed [10, 28]: 70 | Plant response rating, Pigweed [10, 29]: 80 | Plant response rating, Velvetleaf [11, 28]: 0 | Plant response rating, Velvetleaf [11, 29]: 0 | Plant response rating, Wheat [12, 28]: 0 | Plant response rating, Wheat [12, 29]: 0 | Plant response rating, Wild Oat (wild oat (Avena fatua); [28]): 0 | Plant response rating, Wild Oat (wild oat (Avena fatua); [29]): 0 | Plant response rating, Surinam grass [13, 30]: 40 | Plant response rating, Surinam grass [13, 31]: 0 | Plant response rating, Barnyardgrass [14, 30]: 100 | Plant response rating, Barnyardgrass [14, 31]: 20 | Plant response rating, Cocklebur [15, 30]: 0 | Plant response rating, Cocklebur [15, 31]: 0 | Plant response rating, Corn (corn (Zea mays) [16]; [30]): 0 | Plant response rating, Corn (corn (Zea mays) [16]; [31]): 0 | Plant response rating, Crabgrass [17, 30]: 90 | Plant response rating, Crabgrass [17, 31]: 60 | Plant response rating, Foxtail, Giant [18, 30]: 0 | Plant response rating, Foxtail, Giant [18, 31]: 0 | Plant response rating, Lambsquarters [19, 30]: 100 | Plant response rating, Lambsquarters [19, 31]: 90 | Plant response rating, Morningglory [20, 30]: 0 | Plant response rating, Morningglory [20, 31]: 0 | Plant response rating, Pigweed [21, 30]: 100 | Plant response rating, Pigweed [21, 31]: 90 | Plant response rating, Rice (rice (Oryza saliva) [22]; [30]): 0 | Plant response rating, Rice (rice (Oryza saliva) [22]; [31]): 0 | Plant response rating, Velvetleaf [23, 30]: 0 | Plant response rating, Velvetleaf [23, 31]: 0 | Barnyardgrass plant response rating ([24]; Rate 250 g/ha): 0 | Barnyardgrass plant response rating ([24]; Rate 500 g/ha): 20 | Plant response rating, Barnyardgrass ([24]; Rate 62 g/ha): 0 | Plant response rating, Barnyardgrass ([24]; Rate 125 g/ha): 0 | Ducksalad plant response rating ([25]; Rate 250 g/ha): 0 | Ducksalad plant response rating ([25]; Rate 500 g/ha): 30 | Plant response rating, Ducksalad ([25]; Rate 62 g/ha): 0 | Plant response rating, Ducksalad ([25]; Rate 125 g/ha): 0 | Rice plant response rating (rice (Oryza saliva) [26]; Rate 250 g/ha): 0 | Rice plant response rating (rice (Oryza saliva) [26]; Rate 500 g/ha): 30 | Plant response rating, Rice (rice (Oryza saliva) [26]; Rate 62 g/ha): 0 | Plant response rating, Rice (rice (Oryza saliva) [26]; Rate 125 g/ha): 0 | Flatsedge plant response rating ([27]; Rate 250 g/ha): 80 | Flatsedge plant response rating ([27]; Rate 500 g/ha): 80 | Plant response rating, Flatsedge ([27]; Rate 62 g/ha): 70 | Plant response rating, Flatsedge ([27]; Rate 125 g/ha): 70

Cc1c(F)cc(N2CCC(n3ccc(C(C)(C)C)n3)C2=O)cc1Br (centres unmarked) [Compound 78]
Plant response rating, Surinam grass [1, 28]: 0 | Plant response rating, Surinam grass [1, 29]: 0 | Plant response rating, Barnyardgrass [2, 28]: 0 | Plant response rating, Barnyardgrass [2, 29]: 0 | Plant response rating, Blackgrass [3, 28]: 0 | Plant response rating, Blackgrass [3, 29]: 0 | Plant response rating, Cocklebur [4, 28]: 0 | Plant response rating, Cocklebur [4, 29]: 20 | Plant response rating, Corn (corn (Zea mays) [5]; [28]): 0 | Plant response rating, Corn (corn (Zea mays) [5]; [29]): 0 | Plant response rating, Crabgrass [6, 28]: 0 | Plant response rating, Crabgrass [6, 29]: 0 | Plant response rating, Foxtail, Giant [7, 28]: 0 | Plant response rating, Foxtail, Giant [7, 29]: 0 | Plant response rating, Lambsquarters [8, 28]: 0 | Plant response rating, Lambsquarters [8, 29]: 10 | Plant response rating, Morningglory [9, 28]: 0 | Plant response rating, Morningglory [9, 29]: 0 | Plant response rating, Pigweed [10, 28]: 70 | Plant response rating, Pigweed [10, 29]: 80 | Plant response rating, Velvetleaf [11, 28]: 0 | Plant response rating, Velvetleaf [11, 29]: 0 | Plant response rating, Wheat [12, 28]: 0 | Plant response rating, Wheat [12, 29]: 0 | Plant response rating, Wild Oat (wild oat (Avena fatua); [28]): 0 | Plant response rating, Wild Oat (wild oat (Avena fatua); [29]): 0 | Plant response rating, Surinam grass [13, 30]: 0 | Plant response rating, Surinam grass [13, 31]: 0 | Plant response rating, Barnyardgrass [14, 30]: 90 | Plant response rating, Barnyardgrass [14, 31]: 0 | Plant response rating, Cocklebur [15, 30]: 0 | Plant response rating, Cocklebur [15, 31]: 0 | Plant response rating, Corn (corn (Zea mays) [16]; [30]): 0 | Plant response rating, Corn (corn (Zea mays) [16]; [31]): 0 | Plant response rating, Crabgrass [17, 30]: 30 | Plant response rating, Crabgrass [17, 31]: 0 | Plant response rating, Foxtail, Giant [18, 30]: 10 | Plant response rating, Foxtail, Giant [18, 31]: 0 | Plant response rating, Lambsquarters [19, 30]: 100 | Plant response rating, Lambsquarters [19, 31]: 100 | Plant response rating, Morningglory [20, 30]: 0 | Plant response rating, Morningglory [20, 31]: 0 | Plant response rating, Pigweed [21, 30]: 100 | Plant response rating, Pigweed [21, 31]: 80 | Plant response rating, Rice (rice (Oryza saliva) [22]; [30]): 0 | Plant response rating, Rice (rice (Oryza saliva) [22]; [31]): 0 | Plant response rating, Velvetleaf [23, 30]: 0 | Plant response rating, Velvetleaf [23, 31]: 0 | Barnyardgrass plant response rating ([24]; Rate 250 g/ha): 0 | Barnyardgrass plant response rating ([24]; Rate 500 g/ha): 60 | Plant response rating, Barnyardgrass ([24]; Rate 62 g/ha): 0 | Plant response rating, Barnyardgrass ([24]; Rate 125 g/ha): 0 | Ducksalad plant response rating ([25]; Rate 250 g/ha): 0 | Ducksalad plant response rating ([25]; Rate 500 g/ha): 0 | Plant response rating, Ducksalad ([25]; Rate 62 g/ha): 0 | Plant response rating, Ducksalad ([25]; Rate 125 g/ha): 0 | Rice plant response rating (rice (Oryza saliva) [26]; Rate 250 g/ha): 0 | Rice plant response rating (rice (Oryza saliva) [26]; Rate 500 g/ha): 0 | Plant response rating, Rice (rice (Oryza saliva) [26]; Rate 62 g/ha): 0 | Plant response rating, Rice (rice (Oryza saliva) [26]; Rate 125 g/ha): 0 | Flatsedge plant response rating ([27]; Rate 250 g/ha): 0 | Flatsedge plant response rating ([27]; Rate 500 g/ha): 90 | Plant response rating, Flatsedge ([27]; Rate 62 g/ha): 0 | Plant response rating, Flatsedge ([27]; Rate 125 g/ha): 0
